The source of these data is PMC3742671, “Structure, Antimicrobial Activities and Mode of Interaction with Membranes of Bovel Phylloseptins from the Painted-Belly Leaf Frog, Phyllomedusa sauvagii” (PLoS ONE, 2013).

Ends that are not written are not given here. Bounds are passed on as bounds.

What is called MIC is the smallest concentration in the dilution series that meets the test's criterion for growth inhibition. Higher therefore signals weaker potency.

One data set deals with A. baumannii ATCC 19606. To be noted: LB medium (pH 7), absorbance at 630 nm; average of three independent experiments in triplicates. On the procedure:
(§1) The effect of phylloseptins-S was evaluated against several bacterial strains and yeasts (Table 2). Bacteria were cultured in Luria-Bertani broth (LB), whereas yeasts were cultured in Yeast Peptone Dextrose medium (YPD), and minimal inhibitory concentrations (MICs) were determined by measuring the absorbance at 630 nm in 96-well microtitration plates, as described previously. Leishmanicidal activity of phylloseptins-S was also examined against promastigotes of different Leishmania species: Leishmania infantum (strain MHOM/MA/67/ITMAP-263), L. major (MHOM/SU/73/5-ASKH) and L. braziliensis (MHOM/BR/75/M2904). Culture of promastigotes and determination of the growth inhibition were performed as previously described, [22], [23].
(§2) The antimicrobial activity of synthetic PLS-S1 to -S5 was assayed in LB medium (pH 7) against several Gram-negative and Gram-positive bacteria, and multi-drug resistant S. aureus strains. […] The antiparasitic activity of PLSs was also determined against three Leishmania species (L. infantum, L. major, and L. braziliensis). […] Because PLS-S3 contains histidines as basic residues and that approximately only 11% of these residues are positively charged at pH 7, we have evaluated the antibacterial activity at pH 5 at which His residues are predominantly positively charged (∼91%).

For a further data set, the system named is E. coli ATCC 25922. To be noted: for MIC: ATCC 25922, pH 7. On the procedure: as §1, §2
A further data set deals with E. coli ML-35p. To be noted: LB medium (pH 7), absorbance at 630 nm; average of three independent experiments in triplicates. On the procedure: as §1, §2
The test system of a further data set is E. faecalis ATCC 29212. The conditions noted are these: LB medium (pH 7), absorbance at 630 nm; average of three independent experiments in triplicates. On the procedure: as §1, §2
The test system of the next data set is K. pneumoniae ATCC 13883. To be noted: LB medium (pH 7), absorbance at 630 nm; average of three independent experiments in triplicates. On the procedure: as §1, §2
The test system of a further data set is P. aeruginosa ATCC 27853. To be noted: LB medium (pH 7), absorbance at 630 nm; average of three independent experiments in triplicates. On the procedure: as §1, §2
In another data set the test system is S. aureus ATCC 25923. To be noted: LB medium (pH 7), absorbance at 630 nm, 96-well plates; average of three independent experiments in triplicates. On the procedure:
as §1, §2

In the next data set the test system is S. aureus ATCC 43300. To be noted: strain resistant to methicillin and oxacillin; LB medium (pH 7), absorbance at 630 nm; average of three independent experiments in triplicates. On the procedure:
as §1, §2

Another data set has as its system S. aureus ATCC BAA-44. To be noted: multidrug resistant strain; LB medium (pH 7), absorbance at 630 nm; average of three independent experiments in triplicates. On the procedure: as §1, §2
The next data set concerns S. aureus ST1065. The conditions noted are these: LB medium (pH 7), absorbance at 630 nm; average of three independent experiments in triplicates. On the procedure:
as §1, §2

The test system of another data set is S. pyogenes ATCC 19615. The conditions noted are these: LB medium (pH 7), absorbance at 630 nm; average of three independent experiments in triplicates. On the procedure: as §1, §2
The test system of data set [1] is C. parapsilosis ATCC 22019. It counts as cell-based. On the procedure: as §1
Another data set relates to S. cerevisiae. The data set is classed as cell-based. On the procedure: as §1
Data set [2] can be described thus: Circular dichroism spectroscopy in SDS micelles. It counts as physicochemical. To be noted: CD, peptide 30 µM in 80 mM SDS. On the procedure:
(§3) The far-ultraviolet circular dichroism (CD) spectra were recorded as described. Phylloseptins-S (30 µM) were solubilized either in 80 mM sodium dodecyl sulfate (SDS) or in phosphate-buffered saline (PBS: 10 mM phosphate, pH 7.3) containing 1 mg/mL of large unilamellar vesicles (LUVs) of 1,2-dimyristoyl-sn-glycero-3-phosphocholine (DMPC) and 1,2-dimyristoyl-sn-glycero-3-phosphoglycerol (DMPG) (3∶1 mol/mol). DMPC and DMPG were purchased from Avanti Polar Lipids, Inc. Each spectrum was the average of four scans. CD measurements are reported as Δ/n, where Δ is the dichroic increment and n is the number of residues in the peptide.
(§4) Figure 6 Circular dichroism spectra of synthetic phylloseptins-S (30 µM). (A) DMPC/DMPG (3∶1) large unilamellar vesicles in PBS (1 mg/mL). (B) 80 mM SDS. CD measurements are reported as the dichroic increment (Δε) per residue.
On the technique in general: Circular dichroism is the unequal absorption of left and right circularly polarised light.

Data set [3] is described as follows: Circular dichroism spectroscopy with DMPC/DMPG (3:1) large unilamellar vesicles. The data set is classed as physicochemical. The conditions noted are these: CD, peptide 30 µM, DMPC/DMPG (3:1) LUVs 1 mg/mL in PBS pH 7.3. On the procedure: as §3, §4

On to FLSLIPHIVSGVASLAIHF-NH2 [PLS-S3], for which the MIC in the data set with A. baumannii ATCC 19606, in the data set with E. coli ATCC 25922, in the data set on E. coli ML-35p, in the data set on E. faecalis ATCC 29212, in the data set with K. pneumoniae ATCC 13883 and against P. aeruginosa ATCC 27853 was over 200 µM each time. Moreover, the MIC in the data set with S. aureus ATCC 25923 was over 200 µM; with S. aureus ATCC 43300, over 200 µM; in the data set on S. aureus ATCC BAA-44, over 200 µM; against S. aureus ST1065, over 200 µM; in the data set on S. pyogenes ATCC 19615 it was 12.5 µM; in data set [1], over 200 µM. In the data set on S. cerevisiae, the MIC was over 200 µM. Moreover, the “MIC at pH 5” value in the data set with E. coli ATCC 25922 (ATCC 25922, pH 5) is 50 µM. The helix content in data set [2] came to 44%; in data set [3], 65%.
LLGMIPVAISAISALSKL-NH2 [PLS-S5]: the MIC was over 100 µM in the data set on E. coli ATCC 25922; over 100 µM against E. coli ML-35p; 100 µM against E. faecalis ATCC 29212; over 100 µM against P. aeruginosa ATCC 27853; 25 µM against S. aureus ATCC 25923; over 100 µM with S. aureus ATCC 43300. The MIC (in the data set with S. aureus ATCC BAA-44; in the data set with S. aureus ST1065; in [1]) was over 100 µM each time. In addition, the helix content in [2] was 20%; in data set [3] it was 60%.
